Here are results for 12 molecules from ChEMBL document CHEMBL1141649, “Inhaled adenosine A(2A) receptor agonists for the treatment of chronic obstructive pulmonary disease” (Bioorg Med Chem Lett, 2008).

Active and inactive are the calls of the source. No cut-off for these calls is given here.

The nature of data set [1]: Cmax in intratracheally dosed rat at 1 mg/kg. It is filed as ADME, organism-based. The arrangement: dose 1 mg/kg, route endotracheal. The following applies: in vivo, inhaled or intranasal.
Data set [2] can be described thus: Clearance in rat at 1 mg/kg, iv. On the set-up: dose 1 mg/kg, route intravenous. Particulars: in vivo. It is filed as ADME, organism-based.
Data set [3] is described as follows: Membrane permeability by PAMPA assay. Type of data set: ADME. Particulars: read-out: permeability. In general terms: PAMPA measures passive passage across an artificial lipid membrane.
The target in a further data set is Adenosine receptor A2a (Homo sapiens, UniProt P29274). The experiment in a line: Agonist activity at adenosine A2A receptor. Type of data set: functional.
Adenosine receptor A2a, sequence (P29274 whole entry): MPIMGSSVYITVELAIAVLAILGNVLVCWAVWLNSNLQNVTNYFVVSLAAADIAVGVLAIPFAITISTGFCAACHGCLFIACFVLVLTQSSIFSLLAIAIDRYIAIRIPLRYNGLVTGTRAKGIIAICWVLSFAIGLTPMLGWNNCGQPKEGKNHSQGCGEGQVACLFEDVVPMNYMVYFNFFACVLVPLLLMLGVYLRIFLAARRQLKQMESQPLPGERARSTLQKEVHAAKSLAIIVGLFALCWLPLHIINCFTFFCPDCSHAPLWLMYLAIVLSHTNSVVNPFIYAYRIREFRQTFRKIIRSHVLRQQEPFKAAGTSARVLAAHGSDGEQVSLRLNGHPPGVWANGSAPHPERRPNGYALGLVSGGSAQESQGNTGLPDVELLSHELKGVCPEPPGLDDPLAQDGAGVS
Another data set deals with Rattus norvegicus. The experiment in a line: Unbound clearance in rat at 1 mg/kg, iv. Type of data set: ADME, organism-based. On the set-up: dose 1 mg/kg, route intravenous. Particulars: in vivo.
Data set [4] is described as follows: Distribution coefficient, log D at pH 7.4. It is filed as physicochemical. Particulars: octanol/water.
Data set [5] is described as follows: Intrinsic clearance in human liver microsomes. Type of data set: ADME, Microsome.
Data set [6] is filed under the species Cavia porcellus. The experiment in a line: Toxicity assessed as reduction in diastolic blood pressure in guinea pig. Type of data set: organism-based. On the set-up: scale not given: the % may be the effect or the level left. Particulars: in vivo.
Data set [7] is filed under the species Cavia porcellus. The experiment in a line: Inhibition of capsaicin-induced bronchoconstriction in guinea pig after 15 mins. Type of data set: functional, organism-based.
For the next data set, the system named is Neutrophil. Nature of the data set: Inhibition of […]-induced super oxide production in human neutrophils. Type of data set: functional, cell-based.

With `O=C(NCCN1CCCCC1)c1nc(NCC(c2ccccc2)c2ccccc2)c2ncn([C@@H]3O[C@H](CO)[C@@H](O)[C@H]3O)c2n1`, in data set [1], the Cmax (usually the highest concentration seen after dosing) is 20 nM. In data set [2], the clearance (usually a measure of how efficiently the substance is removed, as volume per time) was found to be 48 mL/min/kg. Further, the Papp in data set [3] came out at 0.2 ×10⁻⁶ cm/s. In addition, the IC50 (usually the concentration needed to halve the response being measured) on Adenosine receptor A2a was 65 nM. In the data set with Rattus norvegicus, this molecule displayed a CL of 755 mL/min/kg. Besides, the logD (in general, the decadic logarithm of the distribution of all forms, ionised or not, between an organic phase and buffer at a given pH) in data set [4] was found to be 2.1. The microsomal CLint – broadly, a measure of how fast metabolising enzymes remove a compound, apart from limits set by blood flow – in [5] was found to be 62.6 µL/min/mg.

In data set [1], `CCNC(=O)[C@H]1O[C@@H](n2cnc3c(NCC(c4ccccc4)c4ccccc4)nc(CNC(=O)NCCN(C(C)C)C4CCCC4)nc32)[C@H](O)[C@@H]1O` gave a Cmax of 1.8 nM. In data set [2], this molecule registered a clearance of 45 mL/min/kg. The Papp in data set [3] is less than 0.7 ×10⁻⁶ cm/s. The IC50 on Adenosine receptor A2a came to 6 nM. In the data set on Rattus norvegicus, this molecule had a CL of 3500 mL/min/kg. This molecule also returned a logD in data set [4] of 2. In data set [5], this molecule registered a microsomal CLint of 135 µL/min/mg.

Molecule `COC[C@H]1O[C@@H](n2cnc3c(NCC(c4ccccc4)c4ccccc4)nc(CCNC4CCCCC4)nc32)[C@H](O)[C@@H]1O` came in with an IC50 at Adenosine receptor A2a of 28 nM.

As to `CCNC(=O)[C@H]1O[C@@H](n2cnc3c(NCC(c4ccccc4)c4ccccc4)nc(NCCC4CCCCC4)nc32)[C@H](O)[C@@H]1O`, the IC50 at Adenosine receptor A2a is 1000 nM.

The molecule `COC[C@H]1O[C@@H](n2cnc3c(NCC(c4ccccc4)c4ccccc4)nc(NCCN4CCCCC4)nc32)[C@H](O)[C@@H]1O` returned a half-inhibitory concentration (IC50) on Adenosine receptor A2a of 60 nM.

Molecule `CCNC(=O)[C@H]1O[C@@H](n2cnc3c(NCC(c4ccccc4)c4ccccc4)nc(C(=O)NCCN4CCCCC4)nc32)[C@H](O)[C@@H]1O` had a concentration for half-maximal inhibition (IC50) at Adenosine receptor A2a of 9 nM.

Molecule `CCNC(=O)[C@H]1O[C@@H](n2cnc3c(N)nc(NCCc4ccc(CCC(=O)O)cc4)nc32)[C@H](O)[C@@H]1O` [CGS-21680] registered a Cmax in data set [1] of 271 nM. In addition, in the data set listed under Cavia porcellus [6], the Activity stood at 30%. For the same molecule, in [2], the clearance was 14 mL/min/kg. The outcome in the data set filed under Cavia porcellus [7] was Active. Besides, the Papp in data set [3] was less than 0.2 ×10⁻⁶ cm/s. In the data set with Rattus norvegicus, the CL came to 82 mL/min/kg. This molecule yielded a logD in data set [4] of -0.15. The molecule further had an IC50 with Neutrophil of 47 nM. In data set [5], this molecule yielded a microsomal CLint of less than 8 µL/min/mg.

As to `COC[C@H]1O[C@@H](n2cnc3c(NCC(c4ccccc4)c4ccccc4)nc(NCCC4CCCCC4)nc32)[C@H](O)[C@@H]1O`, the IC50 at Adenosine receptor A2a was 1010 nM.

Regarding `CCNC(=O)[C@H]1O[C@@H](n2cnc3c(NCC(c4ccccc4)c4ccccc4)nc(CNC(=O)NCCN4CCCCC4)nc32)[C@H](O)[C@@H]1O`, on Adenosine receptor A2a, the IC50 worked out at 17 nM.

At Adenosine receptor A2a, `CCNC(=O)[C@H]1O[C@@H](n2cnc3c(NCC(c4ccccc4)c4ccccc4)nc(CNC(=O)NCCN(C4CCCCC4)C(C)(C)C)nc32)[C@H](O)[C@@H]1O` displayed an IC50 of 33 nM.

As for `COC[C@H]1O[C@@H](n2cnc3c(NCC(c4ccccc4)c4ccccc4)nc(CNC4CCCCC4)nc32)[C@H](O)[C@@H]1O`, on Adenosine receptor A2a, the IC50 was 100 nM.

`CCNC(=O)[C@H]1O[C@@H](n2cnc3c(NCC(c4ccccc4)c4ccccc4)nc(CNC(=O)NCCN(C(C)C)C(C)C)nc32)[C@H](O)[C@@H]1O`: the IC50 at Adenosine receptor A2a turned out to be 11 nM.
